Among the data in patent US20130109682A1, “CYCLIC ETHER COMPOUNDS USEFUL AS KINASE INHIBITORS” (NOVARTIS AG, priority 2010, published 2013) are EC50 and IC50 values, retold here.

A value given as a limit tells only on which side of the number the result lay.

Broadly, the EC50 is the concentration needed to bring the measured effect to its halfway point. As usually defined, the IC50 is the concentration at which inhibition is half-maximal.

For experiment [1], the system named is KMS11 (human myeloma cell line). Nature of the experiment: Cell proliferation assay (CellTiter-Glo), KMS11. The experiment is classed as cell-based. Particulars: Homo sapiens, KMS-11; KMS11 cells, cell proliferation; read-out: KMS11-Luc EC50. Put shortly:
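EC50 derived from CellTiter-Glo luminescence after 3-day exposure at 37° C. Compound was diluted to 2× in medium and added to an equal volume of cells. KMS11 myeloma cells were plated on assay day at 2000/well in IMDM with 10% FBS and sodium pyruvate.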

For the next experiment, the target named is PIM2 (Homo sapiens, UniProt Q9P1W9). Nature of the experiment: Pim 2 AlphaScreen assay (high ATP). Type of experiment: biochemical. Particulars: read-out: Pim2 IC50. The method, then: Pim1, Pim2, Pim3 AlphaScreen Assay Pim 1, Pim 2 & Pim 3 AlphaScreen assays using high ATP (11-125×ATP Km) were used to determine the biochemical activity of the inhibitors. The activity of Pim 1, Pim 2, & Pim 3 is measured using a homogeneous bead based system quantifying the amount of phosphorylated peptide substrate resulting from kinase-catalyzed phosphoryl transfer to a peptide substrate. Compounds to be tested are dissolved in 100% DMSO and directly distributed to a white 384-well plate at […] per well. To start the reaction, 5 μl of 100 nM Bad peptide (Biotin-AGAGRSRHSSYPAGT —OH) and ATP (concentrations described below) in assay buffer (50 mM Hepes, pH=7.5, 5 mM MgCl2, 0.05% BSA, 0.01% Tween-20, 1 mM DTT) is added to each well. This is followed by the addition of 5 μl/well of Pim 1, Pim 2 or Pim 3 kinase in assay buffer (concentrations described below). Final assay concentrations (described below) are in 2.5% DMSO. The reactions are performed for ˜2 hours, then stopped by the addition of 10 μl of 0.75 μg/ml anti-phospho Ser/Thr antibody (Cell Signaling), 10 μg/ml Protein A AlphaScreen beads (Perkin Elmer), and 10 μg/ml streptavidin coated AlphaScreen beads in stop/detection buffer (50 mM EDTA, 95 mM Tris, pH=7.5, 0.01% Tween-20). The stopped reactions are incubated overnight in the dark. The phosphorylated peptide is detected via an […] initiated chemiluminescence/fluorescence cascade using the Envision plate reader (Perkin Elmer).
PIM2, sequence (Q9P1W9 whole entry): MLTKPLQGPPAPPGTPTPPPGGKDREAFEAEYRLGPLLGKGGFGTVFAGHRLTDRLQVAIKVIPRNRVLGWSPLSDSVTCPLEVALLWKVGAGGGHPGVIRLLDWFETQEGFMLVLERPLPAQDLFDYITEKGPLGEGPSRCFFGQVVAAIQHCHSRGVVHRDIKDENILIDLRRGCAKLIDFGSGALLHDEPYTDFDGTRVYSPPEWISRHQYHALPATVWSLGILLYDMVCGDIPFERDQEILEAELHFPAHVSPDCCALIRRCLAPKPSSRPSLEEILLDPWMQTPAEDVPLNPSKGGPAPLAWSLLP
IC50, the half maximal inhibitory concentration, represents the concentration of a test compound that is required for 50% inhibition of its target in vitro under the described assay conditions.

Another experiment has as its target GSK3β (Homo sapiens, UniProt P49841). Briefly: GSK3β ATP depletion assay. The experiment is classed as biochemical. Particulars: ATP depletion assay; read-out: GSK3b IC50. In outline:
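Kinase activity is read as ATP consumption: luciferase luminescence reports the ATP remaining once roughly half of the 2 μM ATP is used. Reaction mix: 5 nM GSK3β, 10 μM b-CREB peptide, 50 mM Tris pH 7.5, 15 mM MgCl2, 1 mM DTT, 0.1% BSA, 2.5% DMSO. Enzyme and peptide are preincubated 15 min before ATP is added.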

GSK3β, sequence (P49841 whole entry, species assumed): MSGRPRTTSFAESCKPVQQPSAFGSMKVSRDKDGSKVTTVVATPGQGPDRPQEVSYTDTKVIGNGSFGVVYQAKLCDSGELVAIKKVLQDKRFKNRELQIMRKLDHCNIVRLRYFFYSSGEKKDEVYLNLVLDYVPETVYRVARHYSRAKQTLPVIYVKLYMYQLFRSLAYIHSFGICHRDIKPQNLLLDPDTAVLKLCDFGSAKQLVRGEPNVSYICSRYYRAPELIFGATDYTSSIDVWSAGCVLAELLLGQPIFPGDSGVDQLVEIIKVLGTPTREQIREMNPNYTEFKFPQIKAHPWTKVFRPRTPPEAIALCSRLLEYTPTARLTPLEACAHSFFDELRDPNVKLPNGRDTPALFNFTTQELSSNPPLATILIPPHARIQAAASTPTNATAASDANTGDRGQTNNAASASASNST

Turning to `CC(C)[C@@H]1C[C@H](N)C[C@H](c2ccncc2NC(=O)c2ccc(F)c(-c3c(F)ccc(C#N)c3F)n2)O1` [Example 337, N-(4-((2R,4S,6S)-4-amino-6-isopropyltetrahydro-2H-pyran-2-yl)pyridin-3-yl)-6-(3-cyano-2,6-difluorophenyl)-5-fluoropicolinamide], the EC50 in experiment [1] came to 1350 nM. Further, at PIM2, the 50% inhibitory concentration (IC50) turned out to be 40 nM.
In the case of `C[C@H]1O[C@@H](c2ccncc2NC(=O)c2ccc(F)c(N3CCS(=O)(=O)CC3)n2)C[C@@H](N)[C@]1(C)O` [Example 335, N-(4-((2R,4R,5S,6R)-4-amino-5-hydroxy-5,6-dimethyltetrahydro-2H-pyran-2-yl)pyridin-3-yl)-6-(1,1-dioxidothiomorpholino)-5-fluoropicolinamide], the EC50 in experiment [1] is above 10000 nM. For the same molecule, the IC50 at PIM2 was above 25000 nM.
Turning to `CC(C)C(=O)Nc1ccc(F)c(-c2nc(C(=O)Nc3cnccc3[C@H]3C[C@@H](N)[C@H](O)[C@@H](C(C)C)O3)ccc2F)c1F` [Example 308, N-(4-((2R,4R,5S,6R)-4-amino-5-hydroxy-6-isopropyltetrahydro-2H-pyran-2-yl)pyridin-3-yl)-6-(2,6-difluoro-3-isobutyramidophenyl)-5-fluoropicolinamide], the concentration for half-maximal inhibition (IC50) at GSK3β came to 18300 nM; at PIM2, 68.5 nM.
As for `CC(=O)Nc1cc(F)c(-c2nc(C(=O)Nc3cnccc3[C@H]3C[C@@H](N)[C@](C)(O)[C@@H](C)O3)ccc2F)c(F)c1` [Example 338, 6-(4-acetamido-2,6-difluorophenyl)-N-(4-((2R,4R,5S,6R)-4-amino-5-hydroxy-5,6-dimethyltetrahydro-2H-pyran-2-yl)pyridin-3-yl)-5-fluoropicolinamide], the EC50 in experiment [1] was found to be 940 nM. Further, the concentration for half-maximal inhibition (IC50) at PIM2 came to 2.1 nM.
Regarding `C[C@H]1O[C@@H](c2ccncc2NC(=O)c2ccc(F)c(-c3ccc(N)nc3F)n2)C[C@@H](N)[C@]1(C)O` [Example 311, 6′-amino-N-(4-((2R,4R,5S,6R)-4-amino-5-hydroxy-5,6-dimethyltetrahydro-2H-pyran-2-yl)pyridin-3-yl)-2′,3-difluoro-2,3′-bipyridine-6-carboxamide], the IC50 amounted to 2300 nM at GSK3β and 84.6 nM on PIM2.
Regarding `C[C@]1(O)[C@@H](N)C[C@H](c2ccncc2NC(=O)c2ccc(F)c(-c3c(F)cccc3F)n2)OC12CC2` [Example 287, N-(4-((5R,7S,8S)-7-amino-8-hydroxy-8-methyl-4-oxaspiro[2.5]octan-5-yl)pyridin-3-yl)-6-(2,6-difluorophenyl)-5-fluoropicolinamide], the concentration for half-maximal inhibition (IC50) turned out to be 1500 nM on GSK3β and 388 nM on PIM2.
With `CC(C)[C@H]1C[C@@H](N)C[C@@H](c2ccncc2NC(=O)c2ccc(F)c(-c3c(F)cc(S(C)(=O)=O)cc3F)n2)O1` [Example 303, N-(4-((2S,4R,6R)-4-amino-6-isopropyltetrahydro-2H-pyran-2-yl)pyridin-3-yl)-6-(2,6-difluoro-4-(methylsulfonyl)phenyl)-5-fluoropicolinamide], the values for the half-inhibitory concentration (IC50) at GSK3β and at PIM2 were 10300 nM and 1250 nM, respectively.
`CC(C)[C@H]1O[C@@H](c2ccncc2NC(=O)c2ccc(F)c(-c3cccc(S(C)(=O)=O)c3)n2)C[C@@H](N)[C@@H]1O` [Example 312, N-(4-((2R,4R,5S,6R)-4-amino-5-hydroxy-6-isopropyltetrahydro-2H-pyran-2-yl)pyridin-3-yl)-5-fluoro-6-(3-(methylsulfonyl)phenyl)picolinamide]: the IC50 on GSK3β was above 25000 nM; on PIM2, 2480 nM.
In the case of `CC[C@H]1OC(c2ccncc2NC(=O)c2ccc(F)c(-c3c(F)cc(S(C)(=O)=O)cc3F)n2)C[C@@H](N)[C@]1(C)O` (stereo in doubt) [Example 283, N-(4-((2S,4R,5S,6R)-4-amino-6-ethyl-5-hydroxy-5-methyltetrahydro-2H-pyran-2-yl)pyridin-3-yl)-6-(2,6-difluoro-4-(methylsulfonyl)phenyl)-5-fluoropicolinamide], the concentration for half-maximal inhibition (IC50) on GSK3β came to 12500 nM; at PIM2, 87.4 nM.
As for `CC(C)[C@H]1O[C@@H](c2ccncc2NC(=O)c2ccnc(-n3ccc(=O)cc3)n2)C[C@@H](N)[C@@H]1O` [Example 304, N-(4-((2R,4R,5S,6R)-4-amino-5-hydroxy-6-isopropyltetrahydro-2H-pyran-2-yl)pyridin-3-yl)-2-(4-oxopyridin-1(4H)-yl)pyrimidine-4-carboxamide], the 50% inhibitory concentration (IC50) on GSK3β and on PIM2 was above 25000 nM in each case.
For the molecule `CC(C)[C@H]1C[C@@H](N)C[C@@H](c2ccncc2NC(=O)c2ccc(F)c(-c3c(F)cccc3F)n2)O1` [Example 301, N-(4-((2S,4R,6R)-4-amino-6-isopropyltetrahydro-2H-pyran-2-yl)pyridin-3-yl)-6-(2,6-difluorophenyl)-5-fluoropicolinamide], the IC50 at GSK3β is 20700 nM; on PIM2 it was 159 nM.
The like results for `CC(C)[C@H]1O[C@@H](c2ccncc2NC(=O)c2ccc(F)c(-c3ccc(S(C)(=O)=O)cc3)n2)C[C@@H](N)[C@@H]1O` [Example 306, N-(4-((2R,4R,5S,6R)-4-amino-5-hydroxy-6-isopropyltetrahydro-2H-pyran-2-yl)pyridin-3-yl)-5-fluoro-6-(4-(methylsulfonyl)phenyl)picolinamide] were, in that order, 2820 nM and 1660 nM.
On to `CC[C@H]1O[C@@H](c2ccncc2NC(=O)c2ccc(F)c(-c3c(F)cc(C(C)(C)O)cc3F)n2)C[C@@H](N)[C@@H]1O` [Example 336, N-(4-((2R,4R,5S,6R)-4-amino-6-ethyl-5-hydroxytetrahydro-2H-pyran-2-yl)pyridin-3-yl)-6-(2,6-difluoro-4-(2-hydroxypropan-2-yl)phenyl)-5-fluoropicolinamide], for which the EC50 in experiment [1] is 180 nM. In addition, the half-inhibitory concentration (IC50) on PIM2 came out at 3.9 nM.
For `CC(C)(C)[C@H]1O[C@@H](c2ccncc2NC(=O)c2ccc(F)c(-c3c(F)cccc3F)n2)C[C@H](N)[C@@H]1O` [Example 278, N-(4-((2R,4S,5S,6R)-4-amino-6-(tert-butyl)-5-hydroxytetrahydro-2H-pyran-2-yl)pyridin-3-yl)-6-(2,6-difluorophenyl)-5-fluoropicolinamide], the half-inhibitory concentration (IC50) on GSK3β was 9700 nM; on PIM2 it was 70.7 nM.
With `CC(C)C(=O)Nc1cc(F)c(-c2nc(C(=O)Nc3cnccc3[C@H]3C[C@@H](N)[C@](C)(O)[C@@H](C)O3)ccc2F)c(F)c1` [Example 339, N-(4-((2R,4R,5S,6R)-4-amino-5-hydroxy-5,6-dimethyltetrahydro-2H-pyran-2-yl)pyridin-3-yl)-6-(2,6-difluoro-4-isobutyramidophenyl)-5-fluoropicolinamide], the concentration for a half-maximal effect (EC50) in experiment [1] is 230 nM. Moreover, the IC50 on PIM2 turned out to be 3.5 nM.
As for `CC(C)[C@H]1O[C@@H](c2ccncc2NC(=O)c2ccnc(-n3c(F)cccc3=O)n2)C[C@@H](N)[C@@H]1O` [Example 310, N-(4-((2R,4R,5S,6R)-4-amino-5-hydroxy-6-isopropyltetrahydro-2H-pyran-2-yl)pyridin-3-yl)-2-(6-fluoro-2-oxopyridin-1(2H)-yl)pyrimidine-4-carboxamide], the IC50 at GSK3β was 3310 nM; at PIM2, 6940 nM.
As to `C[C@@]1(O)[C@H](N)C[C@@H](c2ccncc2NC(=O)c2ccc(F)c(-c3c(F)cccc3F)n2)OC12CC2` [Example 288, N-(4-((5S,7R,8R)-7-amino-8-hydroxy-8-methyl-4-oxaspiro[2.5]octan-5-yl)pyridin-3-yl)-6-(2,6-difluorophenyl)-5-fluoropicolinamide], the results for the half-inhibitory concentration (IC50) at GSK3β and on PIM2 were 16300 nM and 272 nM, respectively.
As to `C[C@H]1O[C@@H](c2ccncc2NC(=O)c2ccc(F)c(-c3c(F)cc(C(=O)N(C)C)cc3F)n2)C[C@@H](N)[C@]1(C)O` [Example 334, N-(4-((2R,4R,5S,6R)-4-amino-5-hydroxy-5,6-dimethyltetrahydro-2H-pyran-2-yl)pyridin-3-yl)-6-(4-(dimethylcarbamoyl)-2,6-difluorophenyl)-5-fluoropicolinamide], the concentration giving a half-maximal response (EC50) in experiment [1] worked out at 760 nM. Besides, on PIM2, the IC50 turned out to be 62.7 nM.
For the molecule `CC1(C)C[C@@H](N)C[C@H](c2ccncc2NC(=O)c2ccc(F)c(-c3c(F)cccc3F)n2)O1` [Example 298, N-(4-((2R,4S)-4-amino-6,6-dimethyltetrahydro-2H-pyran-2-yl)pyridin-3-yl)-6-(2,6-difluorophenyl)-5-fluoropicolinamide], the IC50 on GSK3β came out at 4940 nM; on PIM2 it was 234 nM.
